Columns and labels:
[1] = test system: vascular hyperpermeability due to diabetic retinopathy; test: Vascular hyperpermeability due to diabetic retinopathy, genistein-loaded micelle (Experimental Example 14); format: in vivo, Sprague Dawley (SD) male rats
Description: First, each rat was injected intraperitonially with 60 mg/kg of streptozotocin dissolved in 10 mM citrate buffer at pH 4.5 in order for diabetes to be induced. In three days after the injection of streptozotocin, the rat was determined to develop diabetes when its serum concentration of glucose was at least 300 mg/dL. In a week after the injection of streptozotocin, 10 μL of each sample solution was injected into the vitroeus body.

[2] = test system: corneal neovascularization; test: Corneal neovascularization, genistein-loaded micelle (Experimental Example 13); format: in vivo, Albino Sprague Dawley male rats
[3] = test system: HUVEC (Human Umbilical Vein Endothelial Cell); test: HUVEC proliferation (MTT); format: cell-based
Description: An endothelial cell, HUVEC (Human Umbilical Vein Endothelial Cell) (innopharmascreen co. ltd., Korea) was incubated in a EGM®^2 culture medium (Lonza) and then 100 μL of the cell solution with a concentration of 2×10^4/ml was distributed per each well and incubated in a 5% CO2 cultivator at 37° C. for 16 hours. After 16 hours, the culture medium was replaced and seven types of samples were treated. Among the seven types of samples were the control group as treated only with a culture medium, and the groups treated with 50 μM, 100 μM, and 200 μM of genistein solutions and the solutions of the genistein-loaded hyaluronic acid-peptide conjugate of Example 1 comprising 50 μM, 100 μM, and 200 μM of genistein, respectively. 10 μL of each sample and 100 μL of the culture medium were mixed and treated. After the samples were treated, they were incubated in 5% CO2 incubator at 37° C. and the culture media with the samples being mixed therein […] once a day. After three days, the culture media were removed and the samples were treated with 110 μL of an MTT solution (Amresco Co. (Solon, Ohio)), and incubated in a cultivator at 37° C. for two hours and then 50 μL of DMSO was added thereto to measure a light absorbency at 540 nm. The light absorbance as measured was compared with the light absorbance of the control group and the degree of the cell growth was calculated.

[4] = test system: corneal neovascularization; test: Corneal neovascularization after silver nitrate cauterization (Experimental Example 8); format: in vivo, Albino Sprague Dawley male rats; conditions: rat cornea, subconjunctival 20 μL; Avastin 10 mg/ml, peptide and conjugate […] peptide; NV control 90.8±5%
Description: All animal tests including this experiment were conducted in compliance with the guidelines of the Catholic University of Korea and the principles of laboratory animal care; NIH publication No. 85-23 revised in 1985.
The rat was put under anesthesia by an intra-peritoneal injection of a mixed solution of 20 mg/kg of ketamine hydrochloride and 2.5 mg/kg of xylazine hydrochloride. […] In 3 days after the cauterization, subconjunctival administration was conducted with 20 μL of each of 4 sample solutions (a normal control group, NV control (neovascularization control: a control group wherein angiogenesis was made to occur and no drug was treated thereon), a solution comprising Avastin (Roche) dissolved in PBS at a concentration of 10 mg/ml, a solution comprising anti-Flt1 peptide (GGNQWFI) (SEQ ID NO: 3) dissolved in PBS at a concentration of 2.5 mg/ml, and a solution comprising the hyaluronic acid-peptide conjugate with a lower peptide concentration obtained from Preparation Example 3 as dissolved in PBS at a concentration of 2.5 mg/ml based on the content of anti-Flt1 peptide). […] The obtained images were subjected to quantitative analysis with Image J program (Ver. 1.38, National Institute of Health, MD).

[5] = genistein as dispersed in water, 6.2 mg/ml
[6] = genistein as dissolved in DMSO, 6.2 mg/ml

O=c1c(-c2ccc(O)cc2)coc2cc(O)cc(O)c12 [genistein]
average intensity of the fluorescence of retina relative to normal group (1) [1, 5]: 2.38±0.20
average intensity of the fluorescence of retina relative to normal group (1) [1, 6]: 2.00±0.16
average ratio of the neovascular area [2, 5]: 68%
average ratio of the neovascular area [2, 6]: 38%
HUVEC growth inhibition, comparison of genistein alone with micelle ([3]; genistein alone at 200 uM versus genistein-loaded micelle at 50 uM): inferior to the results obtained from the group treated with the genistein-loaded micelle at its lowest concentration (50 uM)
HUVEC cell number relative to control group (100%) ([3]; genistein concentration 100 μm (so in the source), 3 days, MTT): 70.5±3.5%

Avastin: Avastin (Roche), positive control
average intensity of the fluorescence of retina relative to normal group (1) ([1]; normal = 1, negative control 2.54±0.20, Avastin 10 mg/ml, micelle 3.2 mg/ml peptide, four weeks after streptozotocin): 1.49±0.17
average ratio of the neovascular area [4]: 35.4±6.6%
average ratio of the neovascular area ([2]; rat cornea, samples in PBS: Avastin 10 mg/ml, conjugate and micelle 3.2 mg/ml peptide, control group 86%): 23%

Reference: patent US8895069B2, “Drug delivery system using hyaluronic acid-peptide conjugate micelle” (Postech Academy-Industry Foundation, priority 2011, dated 2014)
